# Results: US20230100838A1 (Revolution Medicines, Inc., priority 2019, published 2023)
# Columns and labels:
# Format in all cases: binding
# [1] = target: T1, GDP-loaded K-Ras (1-169) C51S, C80L, C118S (Homo sapiens, UniProt P01116, C118S/C51S/C80L); assay: K-Ras WT (GDP) cross-linking assay (conjugate formation, TOF mass spectrometry); details: percent covalently modified K-Ras by MS, room temperature, typical compound conc. 2, 10, 25 μM, endpoints 1 and 24 h
# T1 construct: GDP-loaded K-Ras (1-169) C51S, C80L, C118S
# Method in brief: (§1)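 5 μM protein (final, from 50 μM) in HEPES/NaCl/MgCl2 buffer pH 7.4 with compound typically at 2, 10 and 25 μM, room temperature, 1 and 24 h endpoints; formic acid quench. Intact-protein LC–TOF MS; percent modification is covalent adduct peak height over total K-Ras peak height.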
# K-Ras G12S = K-Ras G12S (Homo sapiens, UniProt P01116, G12S); assay: K-Ras G12S cross-linking assay (comparable procedure, conjugate formation, TOF mass spectrometry)
# Method in brief: as §1
# [2] = target: T2, GDP-loaded K-Ras (1-169) G12D, C51S, C80L, C118S (Homo sapiens, UniProt P01116, C118S/C51S/C80L/G12D); assay: K-Ras G12D(GDP) cross-linking assay (conjugate formation, TOF mass spectrometry); details: percent covalently modified K-Ras by MS, room temperature, typical compound conc. 2, 10, 25 μM, endpoints 1 and 24 h
# T2 construct: GDP-loaded K-Ras (1-169) G12D, C51S, C80L, C118S
# Method in brief: as §1
# [3] = Table 4, percent covalently modified K-Ras by MS
# [4] = Table 5, percent covalently modified K-Ras by MS
structure (smiles),measurement,setting,value
"Cc1cccc2cccc(N3CCc4c(nc(OC[C@@H]5CCCN5C)nc4N4CCC(N(C)C(=O)C5CN5C)CC4)C3)c12 (stereo partly drawn) [Example 45, N,1-dimethyl-N-(1-(7-(8-methylnaphthalen-1-yl)-2-(((S)-1-methylpyrrolidin-2-yl)methoxy)-5,6,7,8-tetrahydropyrido[3,4-d]pyrimidin-4-yl)piperidin-4-yl)aziridine-2-carboxamide]",WT x-linking (%),[1]; Table 4,+ (0 < x ≤ 20)
same,G12S x-linking (%),K-Ras G12S; [3],+ (0 < x ≤ 10)
same,G12D x-linking (%),[2]; Table 4,+ (0 < x ≤ 20)
"Cc1cccc2cccc(N3CCc4c(nc(OC[C@@H]5CCCN5C)nc4N4CCN(C(=O)C5CN5)CC4)C3)c12 (stereo partly drawn) [Example 46, aziridin-2-yl(4-(7-(8-methylnaphthalen-1-yl)-2-(((S)-1-methylpyrrolidin-2-yl)methoxy)-5,6,7,8-tetrahydropyrido[3,4-d]pyrimidin-4-yl)piperazin-1-yl)methanone]",WT x-linking (%),[1]; Table 4,+ (0 < x ≤ 20)
same,G12S x-linking (%),K-Ras G12S; [3],+ (0 < x ≤ 10)
same,G12D x-linking (%),[2]; Table 4,+ (0 < x ≤ 20)
"CC(=O)N1CC1C(=O)N1CCN(c2nc(OC[C@@H]3CCCN3C)nc3c2CCN(c2cccc4cccc(C)c24)C3)CC1 (stereo partly drawn) [Example 47, 1-(2-(4-(7-(8-methylnaphthalen-1-yl)-2-(((S)-1-methylpyrrolidin-2-yl)methoxy)-5,6,7,8-tetrahydropyrido[3,4-d]pyrimidin-4-yl)piperazine-1-carbonyl)aziridin-1-yl)ethan-1-one]",WT x-linking (%),[1]; Table 4,+ (0 < x ≤ 20)
same,G12S x-linking (%),K-Ras G12S; [3],+ (0 < x ≤ 10)
same,G12D x-linking (%),[2]; Table 4,+ (0 < x ≤ 20)
"Cc1cccc2cccc(N3CCc4c(nc(OC[C@@H]5CCCN5C)nc4N4CCC(N=C=Nc5ccccc5)CC4)C3)c12 [Example 48, N-(1-(7-(8-methylnaphthalen-1-yl)-2-(((S)-1-methylpyrrolidin-2-yl)methoxy)-5,6,7,8-tetrahydropyrido[3,4-d]pyrimidin-4-yl)piperidin-4-yl)-N-phenylmethanediimine]",WT x-linking (%),[1]; Table 4,+ (0 < x ≤ 20)
same,G12S x-linking (%),K-Ras G12S; [3],+ (0 < x ≤ 10)
same,G12D x-linking (%),[2]; Table 4,+ (0 < x ≤ 20)
"Cc1cccc2cccc(N3CCc4c(nc(OC[C@@H]5CCCN5C)nc4N4CCC(N=C=NCc5ccc(Cl)cc5)CC4)C3)c12 [Example 49, N-(4-chlorobenzyl)-N-(1-(7-(8-methylnaphthalen-1-yl)-2-(((S)-1-methylpyrrolidin-2-yl)methoxy)-5,6,7,8-tetrahydropyrido[3,4-d]pyrimidin-4-yl)piperidin-4-yl)methanediimine]",WT x-linking (%),[1]; Table 4,+ (0 < x ≤ 20)
same,G12S x-linking (%),K-Ras G12S; [3],+ (0 < x ≤ 10)
same,G12D x-linking (%),[2]; Table 4,+ (0 < x ≤ 20)
"COc1ccc(CN=C=NC2CCN(c3nc(OC[C@@H]4CCCN4C)nc4c3CCN(c3cccc5cccc(C)c35)C4)CC2)cc1 [Example 50, N-(4-methoxybenzyl)-N-(1-(7-(8-methylnaphthalen-1-yl)-2-(((S)-1-methylpyrrolidin-2-yl)methoxy)-5,6,7,8-tetrahydropyrido[3,4-d]pyrimidin-4-yl)piperidin-4-yl)methanediimine]",WT x-linking (%),[1]; Table 4,+ (0 < x ≤ 20)
same,G12S x-linking (%),K-Ras G12S; [3],+ (0 < x ≤ 10)
same,G12D x-linking (%),[2]; Table 4,+ (0 < x ≤ 20)
"Cc1cccc2cccc(N3CCc4c(nc(OC[C@@H]5CCCN5C)nc4N4CCC(C(O)(O)C(F)(F)F)CC4)C3)c12 [Example 51, (S)-2,2,2-trifluoro-1-(1-(7-(8-methylnaphthalen-1-yl)-2-((1-methylpyrrolidin-2-yl)methoxy)-5,6,7,8-tetrahydropyrido[3,4-d]pyrimidin-4-yl)piperidin-4-yl)ethane-1,1-diol]",WT x-linking (%),[1]; Table 4,+ (0 < x ≤ 20)
same,G12S x-linking (%),K-Ras G12S; [3],+ (0 < x ≤ 10)
same,G12D x-linking (%),[2]; Table 4,+ (0 < x ≤ 20)
"Cc1cccc2cccc(N3CCc4c(nc(OC[C@@H]5CCCN5C)nc4N4CCC(B(O)O)CC4)C3)c12 [Example 52, (S)-(1-(7-(8-methylnaphthalen-1-yl)-2-((1-methylpyrrolidin-2-yl)methoxy)-5,6,7,8-tetrahydropyrido[3,4-d]pyrimidin-4-yl)piperidin-4-yl)boronic Acid]",WT x-linking (%),[1]; Table 4,+ (0 < x ≤ 20)
same,G12S x-linking (%),K-Ras G12S; [3],+ (0 < x ≤ 10)
same,G12D x-linking (%),[2]; Table 4,+ (0 < x ≤ 20)
"CCCN=C=NC1CCN(c2nc(=O)n(-c3c(C)ccnc3C(C)C)c3nc(-c4ccccc4F)c(F)cc23)CC1 [Example 53, 6-fluoro-7-(2-fluorophenyl)-1-(2-isopropyl-4-methylpyridin-3-yl)-4-(4-(((propylimino)methylene)amino)piperidin-1-yl)pyrido[2,3-d]pyrimidin-2(1H)-one]",WT x-linking (%),[1]; Table 4,+ (0 < x ≤ 20)
same,G12S x-linking (%),K-Ras G12S; [3],+ (0 < x ≤ 10)
same,G12D x-linking (%),[2]; Table 4,+ (0 < x ≤ 20)
"COCCN=C=NC1CCN(c2nc(=O)n(-c3c(C)ccnc3C(C)C)c3nc(-c4ccccc4F)c(F)cc23)CC1 [Example 54, 6-fluoro-7-(2-fluorophenyl)-1-(2-isopropyl-4-methylpyridin-3-yl)-4-(4-((((2-methoxyethyl)imino)methylene)amino)piperidin-1-yl)pyrido[2,3-d]pyrimidin-2(1H)-one]",WT x-linking (%),[1]; Table 4,+ (0 < x ≤ 20)
same,G12S x-linking (%),K-Ras G12S; [3],+ (0 < x ≤ 10)
same,G12D x-linking (%),[2]; Table 4,+ (0 < x ≤ 20)
"CCCN=C=NCCCN(C)c1nc(=O)n(-c2c(C)ccnc2C(C)C)c2nc(-c3ccccc3F)c(F)cc12 [Example 55, 6-fluoro-7-(2-fluorophenyl)-1-(2-isopropyl-4-methylpyridin-3-yl)-4-(methyl(3-(((propylimino)methylene)amino)propyl)amino)pyrido[2,3-d]pyrimidin-2(1H)-one]",WT x-linking (%),[1]; Table 4,++ (20 < x ≤ 100)
same,G12S x-linking (%),K-Ras G12S; [3],++ (10 < x ≤ 100)
same,G12D x-linking (%),[2]; Table 4,++ (20 < x ≤ 40)
COCCN=C=NCCCN(C)c1nc(=O)n(-c2c(C)ccnc2C(C)C)c2nc(-c3ccccc3F)c(F)cc12 [Example 56],WT x-linking (%),[1]; Table 4,++ (20 < x ≤ 100)
same,G12S x-linking (%),K-Ras G12S; [3],++ (10 < x ≤ 100)
same,G12D x-linking (%),[2]; Table 4,++ (20 < x ≤ 40)
Cc1ccnc(C(C)C)c1-n1c(=O)nc(N(C)CCCN=C=NCc2ccccc2)c2cc(F)c(-c3ccccc3F)nc21 [Example 57],WT x-linking (%),[1]; Table 4,+ (0 < x ≤ 20)
same,G12S x-linking (%),K-Ras G12S; [3],++ (10 < x ≤ 100)
same,G12D x-linking (%),[2]; Table 4,++ (20 < x ≤ 40)
COc1ccc(CN=C=NCCCN(C)c2nc(=O)n(-c3c(C)ccnc3C(C)C)c3nc(-c4ccccc4F)c(F)cc23)cc1 [Example 58],WT x-linking (%),[1]; Table 4,+ (0 < x ≤ 20)
same,G12S x-linking (%),K-Ras G12S; [3],++ (10 < x ≤ 100)
same,G12D x-linking (%),[2]; Table 4,+ (0 < x ≤ 20)
"Cc1cccc2cccc(N3CCc4c(nc(OC[C@@H]5CCCN5C)nc4N4CCN(C(=O)[C@H]5CN5)[C@@H](CC#N)C4)C3)c12 [Example 63, 2-((S)-1-((R)-aziridine-2-carbonyl)-4-(7-(8-methylnaphthalen-1-yl)-2-(((S)-1-methylpyrrolidin-2-yl)methoxy)-5,6,7,8-tetrahydropyrido[3,4-d]pyrimidin-4-yl)piperazin-2-yl)acetonitrile]",WT x-linking (%),[1]; Table 5,+ (0 < x ≤ 20)
same,G12S x-linking (%),K-Ras G12S; [4],+ (0 < x ≤ 10)
same,G12D x-linking (%),[2]; Table 5,++ (20 < x ≤ 40)
"Cc1cccc2cccc(N3CCc4c(nc(OC[C@@H]5CCCN5C)nc4N4CCN(C(=O)[C@@H]5CN5)[C@@H](CC#N)C4)C3)c12 [Example 64, 2-((S)-1-((S)-aziridine-2-carbonyl)-4-(7-(8-methylnaphthalen-1-yl)-2-(((S)-1-methylpyrrolidin-2-yl)methoxy)-5,6,7,8-tetrahydropyrido[3,4-d]pyrimidin-4-yl)piperazin-2-yl)acetonitrile]",WT x-linking (%),[1]; Table 5,+ (0 < x ≤ 20)
same,G12S x-linking (%),K-Ras G12S; [4],+ (0 < x ≤ 10)
same,G12D x-linking (%),[2]; Table 5,+ (0 < x ≤ 20)
